Measured values published in ChEMBL document CHEMBL1201862, “PubChem BioAssay data set” (2004).
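Five compound concentrations were applied to cells in 96-well plates for 48 hours; endpoints were derived by simple linear interpolation of the resulting dose-response curve. Here, GI50 denotes the concentration required for 50% inhibition of growth.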 Activity calls are given as the source filed them. No stated cut-off is given here; in the data, active = GI50 up to about 1.1 µM and inactive = higher.

Legend:
Assay in all cases: inhibition of tumour cell growth, NCI panel, 48 h
[1] = test system: HCT-116
[2] = test system: HCC 2998
[3] = test system: M14
[4] = test system: T47D
[5] = test system: CAKI-1
[6] = test system: COLO 205
[7] = test system: DU-145
[8] = test system: EKVX
[9] = test system: HOP-62
[10] = test system: UACC-62
[11] = test system: HCT-15
[12] = test system: SNB-75
[13] = test system: RPMI-8226
[14] = test system: OVCAR-3
[15] = test system: NCI-H460
[16] = test system: HOP-92
[17] = test system: ACHN
[18] = test system: BT-549
[19] = test system: LOX IMVI
[20] = test system: CCRF-CEM

Structure (SMILES)	GI50 [1]	GI50 [2]	GI50 [3]	GI50 [4]	GI50 [5]	GI50 [6]	GI50 [7]	GI50 [8]	GI50 [9]	GI50 [10]	GI50 [11] [µM]	GI50 [12]	GI50 [13]	GI50 [14]	GI50 [15]	GI50 [16]	GI50 [17]	GI50 [18]	GI50 [19]	GI50 [20]
CCOc1ccc(N/C(=C(/C(Cl)=C(/Cl)Nc2ccccc2)[N+](=O)[O-])n2nnc3ccccc32)cc1	22.8 µM (inactive)	37.7 µM (inactive)	16 µM (inactive)	40.5 µM (inactive)	23.5 µM (inactive)	20.7 µM (inactive)	45.9 µM (inactive)	28.8 µM (inactive)	24.5 µM (inactive)	17.8 µM (inactive)	12.8	57.1 µM (inactive)	50.7 µM (inactive)	24.1 µM (inactive)	27 µM (inactive)	16 µM (inactive)	25.8 µM (inactive)	13.3 µM (inactive)	–	–
CC1=CC2(C)C=C[C@@H]1C(=O)[C@@]1(C)CC[C@@](O)(C(C)C)[C@H]1CC2	17.3 µM (inactive)	17.5 µM (inactive)	19.3 µM (inactive)	25.8 µM (inactive)	–	20.7 µM (inactive)	28.9 µM (inactive)	24.4 µM (inactive)	20.2 µM (inactive)	20.1 µM (inactive)	24.2	20.9 µM (inactive)	26.5 µM (inactive)	16.1 µM (inactive)	18.4 µM (inactive)	14.4 µM (inactive)	17.6 µM (inactive)	33.8 µM (inactive)	19.1 µM (inactive)	21.6 µM (inactive)
O=[N+]([O-])c1ccc(Sc2c3ccccc3nc3ccccc23)cn1	3.6 µM (inactive)	45.6 µM (inactive)	8.97 µM (inactive)	4.92 µM (inactive)	5.61 µM (inactive)	3.36 µM (inactive)	13.5 µM (inactive)	> 57.4 µM (inactive)	> 42.6 µM (inactive)	18.7 µM (inactive)	9.55	24.9 µM (inactive)	–	8.11 µM (inactive)	> 72.9 µM (inactive)	4.28 µM (inactive)	12.2 µM (inactive)	14.6 µM (inactive)	13 µM (inactive)	2.39 µM (inactive)
N=C(N)N/N=C\c1c(-c2cccc([N+](=O)[O-])c2)nc2sc(Cl)cn12	–	2.31 µM (inactive)	3.49 µM (inactive)	1.64 µM (inactive)	2.33 µM (inactive)	1.93 µM (inactive)	2.48 µM (inactive)	3.15 µM (inactive)	–	27.5 µM (inactive)	4.07	1.52 µM (inactive)	2.22 µM (inactive)	3.24 µM (inactive)	2.67 µM (inactive)	3.16 µM (inactive)	29.2 µM (inactive)	2.39 µM (inactive)	3.7 µM (inactive)	1.26 µM (inactive)
C[C@]12CC[C@H](OC3OC(CO)C(O)C(O)C3O)C[C@H]1CC[C@@H]1[C@@H]2CC[C@]2(C)[C@@H](C3=CCOC3=O)CC[C@]12O (stereo partly drawn) [ACTODIGIN]	15.7 µM (inactive)	26.8 µM (inactive)	> 100 µM (inactive)	> 100 µM (inactive)	–	16.9 µM (inactive)	> 100 µM (inactive)	16.5 µM (inactive)	0.787 µM (active)	6.64 µM (inactive)	22.7	6.84 µM (inactive)	–	–	–	2.24 µM (inactive)	14.5 µM (inactive)	> 100 µM (inactive)	0.495 µM (active)	–
C/C=C/C[C@@H](C)C(=O)C1C(=O)N[C@@H](C(C)C)C(=O)N(C)CC(=O)N(C)[C@@H](CC(C)C)C(=O)N[C@@H](C(C)C)C(=O)N(C)[C@@H](CC(C)C)C(=O)N[C@@H](C)C(=O)N[C@@H](C)C(=O)N(C)[C@@H](CC(C)C)C(=O)N(C)[C@@H](CC(C)C)C(=O)N(C)[C@@H](C(C)C)C(=O)N1C (stereo partly drawn)	3.03 µM (inactive)	2.46 µM (inactive)	6.28 µM (inactive)	3.03 µM (inactive)	12.8 µM (inactive)	–	4.06 µM (inactive)	8.51 µM (inactive)	6.47 µM (inactive)	4.5 µM (inactive)	5.51	4.98 µM (inactive)	–	4.09 µM (inactive)	6.01 µM (inactive)	7.26 µM (inactive)	4.4 µM (inactive)	4.98 µM (inactive)	2.82 µM (inactive)	4.06 µM (inactive)
Nc1c2c(nc3cc(F)c(F)cc13)CCC2	38 µM (inactive)	14.5 µM (inactive)	61.5 µM (inactive)	96.6 µM (inactive)	47.5 µM (inactive)	43.5 µM (inactive)	52.6 µM (inactive)	52.1 µM (inactive)	> 100 µM (inactive)	82.4 µM (inactive)	45.4	42.5 µM (inactive)	43.9 µM (inactive)	> 100 µM (inactive)	22.1 µM (inactive)	38.3 µM (inactive)	32.6 µM (inactive)	> 100 µM (inactive)	36.6 µM (inactive)	–
CC(C)(CO)N1C(=O)c2ccccc2C1(O)c1ccc(Cl)cc1 (stereo not drawn)	> 100 µM (inactive)	> 100 µM (inactive)	> 100 µM (inactive)	72.3 µM (inactive)	> 100 µM (inactive)	> 100 µM (inactive)	> 100 µM (inactive)	> 100 µM (inactive)	> 100 µM (inactive)	> 100 µM (inactive)	> 100	> 100 µM (inactive)	> 100 µM (inactive)	88.7 µM (inactive)	84.9 µM (inactive)	–	> 100 µM (inactive)	> 100 µM (inactive)	–	> 100 µM (inactive)
CON(C)C(=O)C(Cc1ccccc1)NC(=O)OC(C)(C)C (stereo not drawn)	> 100 µM (inactive)	> 100 µM (inactive)	> 100 µM (inactive)	> 100 µM (inactive)	–	> 100 µM (inactive)	> 100 µM (inactive)	> 100 µM (inactive)	> 100 µM (inactive)	> 100 µM (inactive)	> 100	> 100 µM (inactive)	> 100 µM (inactive)	> 100 µM (inactive)	> 100 µM (inactive)	> 100 µM (inactive)	> 100 µM (inactive)	> 100 µM (inactive)	–	> 100 µM (inactive)
CCCCCCc1cc2cc(-c3csc(-c4ccc(OC)cc4)n3)c(=O)oc2cc1O	7.19 µM (inactive)	15.3 µM (inactive)	12.2 µM (inactive)	7.82 µM (inactive)	6.73 µM (inactive)	51.8 µM (inactive)	11.7 µM (inactive)	20.2 µM (inactive)	14.7 µM (inactive)	6.55 µM (inactive)	17.1	14.7 µM (inactive)	33.8 µM (inactive)	–	12.2 µM (inactive)	3.57 µM (inactive)	10.9 µM (inactive)	2.36 µM (inactive)	12.6 µM (inactive)	22.6 µM (inactive)
CC(=O)C(C(C)=O)[C@H]1OC(C)(C)O[C@H]1[C@H]1COC(C)(C)O1	45.2 µM (inactive)	26.5 µM (inactive)	44.3 µM (inactive)	89.1 µM (inactive)	73.6 µM (inactive)	17.7 µM (inactive)	42.1 µM (inactive)	50.6 µM (inactive)	23.4 µM (inactive)	43.2 µM (inactive)	29.6	42.2 µM (inactive)	–	28.6 µM (inactive)	32.4 µM (inactive)	80 µM (inactive)	57.5 µM (inactive)	28.4 µM (inactive)	32.7 µM (inactive)	36.9 µM (inactive)
Cc1ccc(-c2cc(-c3ccc(Cl)cc3)nc(/N=C3\C(=O)N(CN4CCOCC4)c4ccccc43)n2)cc1	24.9 µM (inactive)	18.6 µM (inactive)	26.2 µM (inactive)	32.9 µM (inactive)	32 µM (inactive)	26 µM (inactive)	33.2 µM (inactive)	30.8 µM (inactive)	28 µM (inactive)	20 µM (inactive)	26.6	25.4 µM (inactive)	–	33.9 µM (inactive)	14 µM (inactive)	22.5 µM (inactive)	23.3 µM (inactive)	27.5 µM (inactive)	24.2 µM (inactive)	14.3 µM (inactive)
C[C@]12CCC3c4ccc(O)cc4CC[C@H]3C1CC(=O)NC2=O (stereo partly drawn)	> 10 µM (inactive)	> 10 µM (inactive)	> 10 µM (inactive)	> 10 µM (inactive)	> 10 µM (inactive)	> 10 µM (inactive)	> 10 µM (inactive)	–	> 10 µM (inactive)	–	> 10	–	> 10 µM (inactive)	> 10 µM (inactive)	> 10 µM (inactive)	> 10 µM (inactive)	> 10 µM (inactive)	> 10 µM (inactive)	> 10 µM (inactive)	> 10 µM (inactive)
O=[N+]([O-])c1ccc(N/N=C2/CC3=C2CCCCCCCCCC3)c([N+](=O)[O-])c1	> 100 µM (inactive)	> 100 µM (inactive)	> 100 µM (inactive)	> 100 µM (inactive)	> 100 µM (inactive)	> 100 µM (inactive)	> 100 µM (inactive)	> 100 µM (inactive)	> 100 µM (inactive)	> 100 µM (inactive)	> 100	44.4 µM (inactive)	> 100 µM (inactive)	> 100 µM (inactive)	> 100 µM (inactive)	–	> 100 µM (inactive)	> 100 µM (inactive)	–	> 100 µM (inactive)
CCOC(=O)C(C/C=C/CO)N(C)C(=O)OC(C)(C)C (stereo not drawn)	> 100 µM (inactive)	–	> 100 µM (inactive)	> 100 µM (inactive)	> 100 µM (inactive)	> 100 µM (inactive)	> 100 µM (inactive)	> 100 µM (inactive)	> 100 µM (inactive)	> 100 µM (inactive)	> 100	50.9 µM (inactive)	> 100 µM (inactive)	> 100 µM (inactive)	> 100 µM (inactive)	> 100 µM (inactive)	> 100 µM (inactive)	> 100 µM (inactive)	> 100 µM (inactive)	28.1 µM (inactive)
